From patent US20230130102A1, “Na/K-ATPase LIGANDS AND USE THEREOF FOR TREATMENT OF CANCER” (Marshall University Research Corporation, priority 2019, published 2023)
Values joined by “and” are separate entries in the source; they are usually repeats but may differ in a detail not shown here. Equal values may be shown once. “Also recorded” adds a separate entry of the source.

Tests used:
purified pig kidney NKA = biological target: T1, purified pig kidney NKA (Sus scrofa, UniProt P05024); assay: Na/K-ATPase (ATPase) activity assay; type: biochemical
T1 construct: Na/K-ATPase activity assay of MB5 with purified pig kidney enzyme; from tissue; host or cells: pig kidney
Experimental: It is appreciated that ouabain induces Src/ERK activation (increased protein phosphorylation) of LLC-PK1 cells by binding to α1 NKA and thereby initiates a signaling cascade which results in the endocytosis of the α1 NKA to terminate the signaling.
ATPase activity assay. ATPase activity assay was performed as previously described.
As archetypal agonists of NKA receptor function, ouabain and other CTS stimulate cellular signaling by activating α1 NKA/Src signalosome complex, which results in its endocytosis. It was reasoned that compounds that inhibit CTS induced signaling could function as inverse agonists of this signalosome complex and prevent α1 NKA endocytosis. A group of hydroxyxanthones were thus tested that were identified as a new class of Na/K-ATPase ligands using a high throughput in vitro screening platform and a library of 2600 structurally diverse chemicals.

parental C4-2 cells = assay: 3D culture spheroid growth, C4-2; type: cell-based, human; conditions: parental C4-2, 0.1-2 μM, Day 1-7
Experimental: (§1) 3D culture-spheroid invasion assay. Cells were trypsinized gently (0.05% Trypsin-EDTA) and diluted at 1000 cells in 20 μl of full serum media for DU145 and C4-2 derived sub-clones or 500 cells in 20 ul for PC3 cells and allowed to form spheroids using hanging drop technique for 3 days, as described previously. Generated spheroids were then embedded into 3D matrix (not yet solidified at the time of experiment), as described in the previous section, on top of a 1% solidified agarose coating in 48 well plates. Spheroids were monitored from day 1 to different time points and images were taken using a phase contrast microscope fitted with camera, at same settings. Spheroid growth or invasion area was quantified using ImageJ software from NIH. The following formulas were used for quantitation of spheroids:
(§2) Spheroid growth=(Spheroid area at Day 3 or 7-Spheroid area at 16 hours)/Spheroid area at 16 hours

PC3 cells [1] = assay: Spheroid aggregation in ultralow attachment plates, PC3; type: cell-based, human
Experimental: Spheroid aggregation in ultralow attachment plates. 5000 cells were plated in a 6 well ultralow attachment plate from Corning and allowed to form spheroids spontaneously for a week. Cell aggregates were then immunostained for E-cadherin expression using a monoclonal anti-E-cadherin antibody (Santacruz Biotechnology, Catalogue No.sc-71008), followed by Alexa-Fluor 488 anti-mouse secondary antibody (Thermo-Fisher).

PC3 cells [2] = assay: Western blot and cell fractionation in PC3 cells; type: cell-based, human; conditions: PC3, 72-120 hours of treatment
Experimental: (§3) Western blot, Immunoprecipitation and Immunostaining. Cells were grown to 100% confluency and Western blot were performed as described before. Images were quantified with ImageJ software from NIH. Immunoprecipitation studies were performed as described before. α1 NKA immunostaining was performed by growing cells on sterilized coverslips in 6 well tissue culture plates and permeabilization/fixation with ice-cold methanol followed by blocking with 5% horse serum and 0.1% Triton X-100 in 1× Phosphate buffered saline (PBS) for 30 minutes. Coverslips were then stained with an anti-α1 NKA antibody (Millipore, Cat #05-369) at 1:100 dilution in 1% BSA (Bovine Serum Albumin) containing 1×PBS solution for overnight. Next day after three washes, coverslips were stained with Alexa Fluor 488 conjugated anti-mouse secondary antibody (Thermo-Fisher) for 1 hour, washed extensively and then imaged using a fluorescent microscope with GFP filter or confocal microscope (LEICA-DMIRE2). E-cadherin and occludin immunostaining was performed in a similar manner. Phospho-Src, phospho ERK1/2 immunostaining were performed as described before and images were taken with a LEICA DMIRE2 confocal microscope.

[3] = test system: DU145 or α1 knockdown cells (KD) xenograft; assay: tumor xenograft of DU145 or α1 KD cells in NOD/SCID mice; type: in vivo, mouse
Experimental: Mice studies. Animal protocols were approved by an Institutional Animal Care and Use Committee (IACUC) according to NIH guidelines. Tumor xenografts were established by subcutaneous injection of 5×10^6 cancer cells into the left and right flanks of 10-week-old male NOD/SCID mice (Charles River). Tumor length (L) and width (W) were measured with calipers weekly and tumor volume was estimated as V=(L×W^2)/2. After the tumor volumes reached approximately 100 mm^3, mice were sacrificed and tumors were harvested. Half of the tumors were used for protein extraction and the other half were digested with collagenase I solution (SIGMA) to isolate cancer cells.
For MB5 treatment, after tumor volume reached approximately 100 mm^3, mice were injected peritoneally with DMSO or MB5 at 20 mg/kg or 10 mg/kg daily and further monitored for tumor growth weekly. At the end of treatment period (about 2-3 weeks), tumors were harvested and tumor lysates were analyzed for protein expression by Western blot.
The therapeutic potential of MB5 in a tumor xenograft model was first tested by injecting DU145 or corresponding α1 knockdown cells (KD) into the right or left flank of 10-week-old NOD/SCID mice. The tumor growth was monitored twice weekly. Once the tumors reached a volume of approximately 100 mm^3, the animals received daily injections of MB5 at 20 mg/kg intraperitoneally for 3.5 weeks. […] Next, it was determined whether MB5 could decrease tumor growth of highly aggressive subclones derived from DU145. […] FIG. 26E summarizes the effect of MB5 treatment on all types of xenografted tumor growth from DU145 and derivative cell lines.

DU145 derived subclones = assay: Western blot / immunostaining of EMT markers, Src/FAK activation and proliferation markers in DU145 derived subclones; type: cell-based, human; conditions: for expression of PCNA: 72 hours
Experimental: as §3
Next, it was tested whether MB5 as an inverse agonist of NKA receptor function could reverse EMT and stop invasion of PCa cells by rescuing α1 NKA expression in PCa. Subclone 5 and 2 cells were exposed to a long term treatment (0, 24, 48 and 72 hours) with 100 nM MB5.

[4] = test system: subclone 5 spheroids (DU145 derived); assay: 3D culture spheroid growth, subclone 5; type: cell-based, human; conditions: subclone 5 spheroids in 3D culture
Experimental: as §1, §2
For drug treatment, compound was diluted into media, from stock solution. For MMP secretion, conditioned media for 3 days were collected from top of matrix and assessed for MMP secretion by Western blot using Matrix Remodeling Antibody Sampler kit from Cell Signaling Technology (Cat #73959).

[5] = Western blot, 100 nM, up to 72 hours

In the case of `O=c1c2cccc(O)c2oc2c(O)c(O)ccc12` [MB5], the “inhibition of NKA activity” value (purified pig kidney NKA; about 1 nM to 100 nM) is reported as ~25%, the “high affinity component, share of Na/K-ATPase activity” value (purified pig kidney NKA; biphasic NKA inhibition curve) is reported as 20% and the IC50 (purified pig kidney NKA; purified pig kidney enzyme, low affinity component of biphasic curve) is reported as ~10 µM and 10 µM. For the same compound, the “inhibition of NKA activity” value (purified pig kidney NKA; ~10 μM) was ~50%, the spheroid growth (parental C4-2 cells) was “did not significantly affect spheroid growth” and the cell aggregation (PC3 cells [1]; PC3, ultralow attachment plates) was “increased cell aggregation in a concentration-dependent manner”. The E-cadherin expression (PC3 cells [1]; PC3 aggregates, immunostaining) was “significantly increased E-cadherin expression”, the EMT phenotype (PC3 cells [2]) was “reversed the EMT phenotype” and the Src activation (PC3 cells [2]) was “decreased Src activation”. The “α1 NKA expression” value (PC3 cells [2]) was “significantly increased α1 NKA expression”, the “reduction of tumor growth” value ([3]; 20 mg/kg daily intraperitoneally for 3.5 weeks, DU145 and KD groups) was “about 70%” and the bodyweight ([3]; 20 mg/kg, NOD/SCID mice) was “without significantly affecting bodyweight”. The tumor growth ([3]; 20 mg/kg/day, DU145 or KD cells) was “reduces tumor growth”, the tumor growth ([3]; all tested cell lines xenografted into NOD/SCID mice) was “significantly reduced tumor growth from all tested cell lines” and the “Src, FAK activation and Myc expression” value (DU145 derived subclones; 100 nM, subclones 5 and 2) was “significant decrease”. For the same compound, the “expression of mesenchymal markers (SNAIL, ZEB1)” value (DU145 derived subclones; [5]) was “downregulating; also recorded: decreased expression of mesenchymal markers”, the “α1 NKA and E-cadherin expression” value (DU145 derived subclones; [5]) was “increasing; also recorded: significant time-dependent increase; also recorded: increased α1 NKA and E-cadherin expression” and the “expression of PCNA” value (DU145 derived subclones; subclone 2, 100 nM) was “significantly reduced”. For the same compound, the “expression of PCNA” value (DU145 derived subclones; subclone 5, 100 nM) was “abolished” and the spheroid size [4] was “significantly reduced the size of subclone 5 spheroids”.
